The target of experiment [1] is T1, Ca^2+ uniporter (Homo sapiens, UniProt Q8NE86).
T1 construct: The effects of several intracellular Ca^2+ modulating agents (ICMAs) on permeabilized HepG2 cells were examined; endogenous in cells; host or cells: HepG2 (ATCC HB-8065), digitonin-permeabilized, in suspension
T1 sequence (Q8NE86 51-351): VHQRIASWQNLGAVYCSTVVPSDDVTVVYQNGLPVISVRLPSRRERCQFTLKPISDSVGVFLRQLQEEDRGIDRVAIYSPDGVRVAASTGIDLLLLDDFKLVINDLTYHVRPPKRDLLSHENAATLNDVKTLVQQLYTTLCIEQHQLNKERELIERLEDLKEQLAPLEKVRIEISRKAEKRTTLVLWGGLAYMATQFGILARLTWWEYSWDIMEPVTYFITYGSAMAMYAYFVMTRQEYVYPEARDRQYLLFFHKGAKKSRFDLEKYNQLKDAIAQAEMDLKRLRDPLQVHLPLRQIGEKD
T1 sequence (Q9H4I9 48-107 partner limits assumed): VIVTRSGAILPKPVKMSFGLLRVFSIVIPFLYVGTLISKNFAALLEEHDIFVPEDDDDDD
As to the kind of experiment: High-throughput uniporter assay of different compounds, permeabilized HepG2 cells with and without thapsigargin, FLIPR II. The format is cell-based.
Text: The high-throughput uniporter assay protocol, carried out as described above for suspension cells, was used to determine the effect of different compounds on mitochondria and extramitochondrial Ca^2+ concentrations in the presence or absence of the Ca^2+ uptake inhibitor of the endoplasmic reticulum, thapsigargin (Calbiochem). Agents examined in this assay include calcium channel inhibitors, pro- and anti-oxidants, mitochondrial inhibitors and uncouplers, and the Ca—UP inhibitor Ru360. On the day of the assay, solutions of the respiratory/cell permeabilizing media containing digitonin with thapsigarin (MM-TD) and without thapsigarin (MM-D) were prepared as previously described. Calcium chloride was added to each to a final concentration of 6 micromolar Ca^2+, resulting in MM-TD, 6 uM Ca and MM-D, 6 uM Ca. A MM solution was prepared with a 10× Ca^2+ concentration of 200 micromolar for the second Ca^2+ pulse. The Ca^2+-uniporter inhibitor Ru360 was prepared at a 10× concentration of 100 microliters in MM. Ten times (10×) stock solutions of the other agents were prepared for the assay by the addition of the compounds to final concentrations of 10 micromolar into MM. […] Controls include water and 10% DMSO (Sigma) in MM.
Cells of the HepG2 cell line (hepatocellular carcinoma, ATCC HB-8065) were trypsinized from near-confluent flasks in growth media (Eagle's MEM with non-essential amino acids, sodium pyruvate and Earle's BSS, 90%; FBS 10%). Cells were centrifuged, growth media was aspirated, and cells were resuspended to a concentration of 1×10^7 cells per milliliter in MM-TD, 6 uM Ca, or MM-D, 6 uM Ca. One hundred (100) microliters of the cell suspension (about 1×10^6 cells) were delivered to wells of a microtiter plate. The plate was placed in a FLIPR™ II (used in 96-well format) warmed to 37° C. An 11.1 microliter aliquot of the 10× stock solutions with water or DMSO (controls), Ru360 (Ca—UP inhibitor), or the test compounds, were dispensed into designated wells such that the assay concentration of DMSO is 0.1%, Ru360 is 10 micromolar, and each of the test compounds are at 1 micromolar concentrations. After an additional three minutes, a second addition of 12.3 microliters of the 10× CaCl2 (200 micromolar Ca^2+), was dispensed into the wells of the microtiter plate resulting in assay concentrations of 20 micromolar Ca^2 (Extramitochondrial Ca^2+ bound to the calcium indicator dye was monitored throughout and profiles of each assay; the results are presented in FIG. 12, with all thapsigargin minus (thaps−) assays in wells corresponding to columns 1-6 and thapsigargin plus (thaps+) assays in wells corresponding to columns 7-12.

The subject of experiment [2] is mitochondria permeability transition (MPT). As to the kind of experiment: MPT modulation assay, digitonin-permeabilized MixCon cells, Ca-Green-5N, cuvette spectrofluorimeter. The experiment is classed as cell-based.
Experimental: An assay was performed in order to observe the transition induction effect on MPT by the MPT effector, diamide (a thiol oxidizing agent and pro-oxidant). The assay was performed in a digitonin-permeabilized cell line of mixed cybrids, MixCon in the presence of Ca^2+ and Ca-Green-5N and monitored in an LS50B Perkin Elmer Spectrofluorimeter, but is adaptable to the FLIPR system. Initially, ethacrynic acid was added to the MixCon cells in Dulbecco's modified Eagle's medium and 10% FBS, to a final concentration of 100 micromolar and preincubated for 5 minutes to remove the ability of cells to deal with oxidative stress making cells susceptible to the pro-oxidant. The cells were then centrifuged, growth media was aspirated, and cells resuspended, at 1.1×10^7 cells/milliliter, in 2 milliliters of respiratory media containing digitonin (MM-D) whereupon the digitonin (dig) permeabilizes the cells. The suspension was then transferred to a spectrofluorimetric cuvette. The cuvette was placed in the fluorimeter and 0.3 microliters of a 254 millimolar CaCl2 stock was added to the cuvette (final CaCl2 concentration of 40 micromolar). After approximately three minutes diamide was added to the cuvette to a final concentration of 500 micromolar].
For experiment [3], the system named is Ca^2+ uniporter.
Experimental: On the day of the assay a master mix solution (MM) was prepared by the addition of glutamate and malate from the stock solutions to final concentrations of 5 millimolar each, 1 millimolar MgCl2, and 0.5 micromolar Calcium-Green-5N (Molecular Probes, Eugene, Oreg.). The hexapotassium salt Calcium-Green-5N (Molecular Probes, Eugene, Oreg.) in the MM is a fluorescent dye that has low binding affinity to Ca^2+. The cell membrane permeabilizing agent digitonin (Sigma, St. Louis, Mo.) was added to MM to a final concentration of 0.007% to yield a solution designated MM-D. To this mixture CaCl2 was added to a final concentration of 6 micromolar Ca^2+ to yield a solution designated MM-D, 6 uM Ca. A 10× Ca^2+ stock solution was prepared by addition of CaCl2 to a final concentration of 200 micromolar in MM (no digitonin), and 10× solutions of FCCP were also prepared in MM to give concentrations of 0, 0.2, 0.4, 0.6, 0.8, 1.0, 2.0, 5.0, and 10.0 micromolar.
HepG2 cells (human hepatocellular carcinoma, ATCC HB-8065) were trypsinized from near-confluent flasks in growth media, Eagle's minimum essential medium (MEM) with non-essential amino acids, sodium pyruvate and Earle's balanced salt solution (BSS), 90%; FBS 10%. Cells were centrifuged, growth media aspirated, and resuspended in the permeabilizing solution MM-D, 6 uM CaCl2. The concentration of cells was adjusted to 1×10^7 cells per milliliter in solution. One hundred (100) microliters of the cell suspension (1×10^6 cells) were delivered to the 96 well microtiter plate. […]
A pulse of 12.3 microliters of the 10× stock CaCl2 solution was introduced into each of the wells of the microtiter plates after about four minutes. Emissions resulting from the binding of extramitochondrial Ca^2+ to the calcium indicator dye were monitored throughout the assay. […]
The average of the changes of fluorescence for the assays (1-12) versus time course where FCCP was added at one minute, and calcium was pulsed into the assay media at approximately 4 minutes, were determined and graphed as a function of time (FIG. 11).
In experiment [4] the target is T1, Ca^2+ uniporter. As to the kind of experiment: Ca^2+ uniporter assay, digitonin-permeabilized suspended HepG2 cells, Calcium-Green-5N on FLIPR, ICMA added between two Ca^2+ pulses. The experiment is classed as cell-based. The note with it: 5 micrograms/milliliter oligomycin, 2 micromolar rotenone, 1 micromolar FCCP; for mitochondrial uptake of the second Ca^2+ pulse: second Ca^2+ pulse at about t=6 min, 1 micromolar RU360.
Experimental: A master mix solution (MM Solution) was prepared by the addition of glutamate and malate to final concentrations of 5 millimolar each, MgCl2 to a final concentration of 1 millimolar, EGTA to a final concentrations of 0 to 8 micromolar, and Calcium-Green-5N to a final concentration of 0.1 to 1.0 micromolar, to a basic KCl-based respiratory media (“BReM”) that is described in Table 3. […] The hexapotassiun salt Calcium-Green-5N (Molecular Probes, Eugene, Oreg.) in the MM Solution is a fluorescent dye that has low binding affinity to Ca^2+.
Thapsigargin (Calbiochem, San Diego, Calif.), a Ca^2+ uptake inhibitor of the endoplasmic reticulum (ER), was added to the MM Solution to a final concentration of 1 micromolar to yield a solution designated “MM-T” (i.e., Master Mix with Thapsigargin).
The cell membrane permeabilizing agent digitonin (Sigma, St. Louis, Mo.) was added to MM-T to a final concentration of from about 0.007% to about 0.03% to yield a solution referred to as “MM-TD” (i.e., Master Mix with Thapsigargin and digitonin. CaCl2 was added to MM-T to provide a solution with a determined final concentration of Ca^2+ for the determination of intracellular Ca^2+ flux.
The effects of several intracellular Ca^2+ modulating agents (ICMAs) on permeabilized HepG2 cells were examined as follows. The mitochondrial respiratory inhibitors oligomycin (Calbiochem, San Diego, Calif.) and rotenone (Calbiochem) were added to MM-T to final concentrations of 50 micrograms/milliliter and 20 micromolar, respectively. The uncoupler FCCP was similarly added to MM-T to a 10× concentration (10 micromolar) to yield a stock solution of FCCP, MM-TF (i.e., Master Mix with Thapsigargin and FCCP). The ICMA Ru360, which blocks Ca^2+ uptake into the mitochondria by the calcium uniporter, was added to MM-T to a concentration of 100 micromolar to yield MM-T360 (i.e., Master Mix with Thapsigragin and Ru360). CaCl2 was added to MM-T to yield a 10× solution of CaCl2 (120 micromolar) in MM-T.
HepG2 cells were cultured in Eagle's minimal essential medium (MEM) with non-essential amino acids, sodium pyruvate and Earle's balanced salt solution (BSS), 90%; fetal bovine serum (FBS), 10%. Cells were centrifuged (500×g) and the growth media was aspirated from the pellet. The HepG2 cells were resuspended in MM-TD at a concentration of 1×10^7 cells/milliliter, and 100 microliters of the resuspended permeabilized cells were dispensed into wells of a 96-well Costar 3603 microplate. The plate was placed into a FLIPR™ prewarmed to 37° C. MM-T, 120 micromolar Ca^2+, was dispensed into the cell-containing wells at a volume of 11.1 microliters, yielding a final assay concentration of 12 micromolar Ca^2+. The addition of Ca^2+ at this stage of the assay is referred to as the first calcium pulse and the time at which Ca^2+ is added is designated t=0.
After about three minutes (i.e., at about t=3 min.), 12.3 microliters of one of the ICMA solutions were dispensed into wells containing permeabilized cells to yield final assay concentrations of 5 micrograms/milliliter oligomycin, 2 micromolar rotenone, 1 micromolar FCCP, 1 micromolar RU360, and MM-T (no ICMA).
Cells were exposed to a second calcium pulse by the addition of 13.7 microliters of MM-T, 120 micromolar Ca^2+, to the cells after an additional 3 minutes (i.e., at about t=6 min.).

The test system of experiment [5] is mitochondria permeability transition (MPT). As to the kind of experiment: MPT modulation assay, digitonin-permeabilized 293T cells, cuvette spectrofluorimeter. The format is cell-based, human.
Experimental: The transition induction effect on MPT by the MPT effector, diamide (a thiol oxidizing agent and pro-oxidant) were performed with a second cell line, 293T. The 293T cells were suspended in 2 milliliters of growth media, DMEN and 10% FBS, with 100 micromolar of ethacrynic acid (1×10^7 cells/ml) and preincubated for 14 minutes to remove ability of cells to deal with oxidative stress making them susceptible to the pro-oxidant. The cells were centrifuged, media aspirated, resuspended in 2 milliliters of respiratory media containing digitonin (MM-D), and transferred into a cuvette. The digitonin (dig) in MM-TD permeabilizes the cells. The cuvette was placed in a LS50B Perkin Elmer Spectrofluorimeter and 40 micromolar CaCl2 in H2O was added into the suspension. After approximately three minutes 500 micromolar diamide was dispensed into the cuvette.
For experiment [6] the test system is unchanged. In words: High-throughput MPT modulation assay, permeabilized HepG2 cells with and without thapsigargin, FLIPR 384. The format is cell-based, human. The note with it: compounds 1 micromolar.
Experimental: HepG2 cells (hepatocellular carcinoma, ATCC HB-8065), in suspension, were used to determine the effect of these compounds on mitochondria Ca^2+ sequestration by monitoring extramitochondrial Ca^2+ concentrations in the presence or absence of the Ca^2+ uptake inhibitor of the endoplasmic reticulum, thapsigargin (Calbiochem, San Diego, Calif.). On the day of the assay solutions of the respiratory media containing digitonin with thapsigarin (MM-TD) and without thapsigarin (MM-D) were prepared as previously described. Calcium chloride was added to each to a final concentration of 6 micromolar Ca^2+, to yield MM-TD, 6 uM Ca, and MM-D, 6 uM Ca. Ten times (10×) stock solutions were prepared for the assay by the addition of each of the compounds to final concentrations of 10 micromolar in MM. Ten times (10×) solutions of CaCl2 was prepared in MM or MM-T to concentrations of 200 micromolar, for the second addition.
The HepG2 cells were trypsinized from near-confluent flasks in growth media (Eagle's MEM with non-essential amino acids, sodium pyruvate and Earle's BSS, 90%; FBS 10%). Cells were centrifuged, media was aspirated, and the cells were resuspended to 1×10^7 cells per milliliter in MM-TD, 6 uM Ca and MM-D, 6 uM Ca, whereby Ca^2+ and the indicator dye enter the cells and Ca^2+ becomes sequestered in mitochondria. One hundred (100) microliters of the cell suspension was delivered to each well of a microtiter plate. The plate was placed in the FLIPR 384 warmed to 37° C. An 11.1 microliter volume of the 10× stock solutions with the test compounds were dispensed into designated wells such that the assay concentration are 1 micromolar. After a three minute interval, a Ca^2+ pulse of 20 micromolar was delivered by adding 12.3 microliters of the 10× CaCl2 solutions containing 200 micromolar Ca^2+.

With `N#CC(C#N)=NNc1cccc(Cl)c1` [CCCP, carbonyl cyanide m-chlorophenyl-hydrazone], at Ca^2+ uniporter [1] (test compounds 1 micromolar), the “fluorescence signal over the 3 minutes after compound addition (retention of the accumulated 6 micromolar Ca^2+)” value (shortened to “fluorescence signal over the 3 minutes”) was “release Ca^2+ from mitochondria”; the “uniporter activity profile after the 20 micromolar Ca^2+ pulse” value (“uniporter activity profile” below) is “prevent Ca^2+ uptake and retention by the mitochondria”.

With `N#CC(C#N)=NNc1ccc(OC(F)(F)F)cc1` [FCCP, carbonyl cyanide p-(trifluoromethoxy)phenyl-hydrazone], the “further Ca^2+ release on addition of uncoupler after diamide” value in experiment [2] (FCCP 0.1 micromolar after 500 micromolar diamide, no CsA) is listed as “no further release of Ca^2+ from the mitochondria”; in experiment [5] (FCCP 0.1 micromolar after 500 micromolar diamide), “no increased level of fluorescence”. For the same compound, in experiment [2] (FCCP after diamide with 10 micromolar CsA), the “Ca^2+ release on addition of uncoupler in the presence of CsA and diamide” value is on record as “Ca^2+ released from the mitochondria”. The “effect on CaUP activity at the lowest concentrations” value in the experiment on Ca^2+ uniporter [3] (0.02 or 0.04 uM FCCP, FCCP at 1 min, Ca^2+ pulse at about 4 min, FIG. 10) is “difficult to distinguish from the results obtained when no FCCP was present”. Besides, in the experiment on Ca^2+ uniporter [3] (FCCP added at t=1 min to cells loaded with 6 micromolar Ca^2+, FIG. 11), the “fluorescence upon addition of the agent, before the Ca^2+ pulse” value is on record as “fluorescence rises slightly”. In addition, the “effect of the uncoupler on CaUP activity with decreasing concentration” value with Ca^2+ uniporter [3] (FCCP from 1.0 uM to 0.02 uM, FIG. 10) was “decreases in a corresponding manner”. Moreover, the “release of sequestered Ca^2+ from mitochondria after addition of the agent” value on Ca^2+ uniporter [4] (added about 3 min after first 12 micromolar Ca^2+ pulse, thapsigargin present) was “caused the release of Ca^2+ from mitochondria into the cytosol”. In addition, the “mitochondrial uptake of the second Ca^2+ pulse” value on Ca^2+ uniporter [4] is “could not sequester the added Ca^2+”.

Turning to `CC(=O)N[C@@H](CS)C(=O)O` [N-acetylcysteine], the “uniporter activity profile” value on Ca^2+ uniporter [1] (test compounds 1 micromolar) is on record as “uniporter non-inhibitory profile”.

In the case of `CCC(C)N(C)C(=O)c1cc2ccccc2c(-c2ccccc2Cl)n1` (stereo not shown) [PK-11195], the “uniporter activity profile” value at Ca^2+ uniporter [1] (test compounds 1 micromolar) was “uniporter non-inhibitory profile”.

On to `N=C(N)NC(=O)c1nc(Cl)c(N)nc1N` [amiloride], for which, at Ca^2+ uniporter [1] (test compounds 1 micromolar), the “uniporter activity profile” value is listed as “do not possess uniporter inhibitory activity”.

On to `C=C1[C@@H]2CC[C@H]3[C@]4(C)C[C@H](O[C@@H]5O[C@H](CO)[C@@H](OS(=O)(=O)O)[C@H](OS(=O)(=O)O)[C@H]5OC(=O)CC(C)C)C[C@@H](C(=O)O)[C@H]4CC[C@]3(C2)[C@H]1O` [atractyloside], for which the “assay profile after the 20 micromolar Ca^2+ pulse” value (“assay profile” for short) in experiment [6] is “initial uptake of Ca^2+ into mitochondria with the slow release of the Ca^2+ into the cytosol”. For the same compound, the “fluorescence signal over the 3 minutes” value on Ca^2+ uniporter [1] (test compounds 1 micromolar) is on record as “slight indication of Ca^2+ release”.

For `CO[C@H](C/C=C\C=C\CC/C=C/C[C@H](C)/C=C/C(=C\C(=O)O)CC(=O)O)/C(C)=C\C=C(/C)C(=O)O` [bongkrekic acid], the “assay profile” value in experiment [6] is “normal mitochondria sequestration of Ca^2+”.

For the compound `CN(CC(=O)O)C(=N)N` [creatine], the “uniporter activity profile” value at Ca^2+ uniporter [1] (test compounds 1 micromolar) was “uniporter non-inhibitory profile”.

As for `O=C1CN(/N=C/c2ccc(-c3ccc([N+](=O)[O-])cc3)o2)C(O)=N1` [dantrolene], at Ca^2+ uniporter [1] (test compounds 1 micromolar), the “uniporter activity profile” value is given as “uniporter non-inhibitory profile”.

For the compound `CN(C)C(=O)/N=N/C(=O)N(C)C` [diamide, azodicarboxylic acid bis[dimethylamide]], the “fluorescence upon addition of diamide in the presence of CsA” value in experiment [2] (diamide 500 micromolar with 10 micromolar CsA) was “only a slight increase in fluorescence”. Further, the “time until mitochondria released the sequestered Ca^2+ after diamide addition” value in experiment [2] (diamide 500 micromolar, cells preincubated with 100 micromolar ethacrynic acid, 40 micromolar CaCl2) was no more than 6 min. Further, the “assay profile” value in experiment [6] was “sequestering of Ca^2+ by mitochondria after the Ca^2+ pulse”. In addition, the “uniporter activity profile” value on Ca^2+ uniporter [1] (test compounds 1 micromolar) is reported as “uniporter non-inhibitory profile”. The “time after which the rate of Ca^2+ release substantially increased” value in experiment [5] (diamide 500 micromolar) was “about 7.5 minutes”. In addition, the “Ca^2+ release from mitochondria after diamide addition” value in experiment [5] (diamide 500 micromolar, ethacrynic acid 100 micromolar preincubation 14 minutes, 40 micromolar CaCl2) was “immediately began to slowly release Ca^2+ to the medium”.

In the case of `COc1ccc([C@@H]2Sc3ccccc3N(CCN(C)C)C(=O)[C@@H]2OC(C)=O)cc1` [diltiazem], the “uniporter activity profile” value at Ca^2+ uniporter [1] (test compounds 1 micromolar) is reported as “do not possess uniporter inhibitory activity”.

Take `COc1ccc(Cl)cc1C(=O)NCCc1ccc(S(=O)(=O)NC(=O)NC2CCCCC2)cc1` [glyburide]: on Ca^2+ uniporter [1] (test compounds 1 micromolar), the “uniporter activity profile” value is reported as “uniporter non-inhibitory profile”.

In the case of `C[C@H](CCC(=O)O)C[C@H](C)C[C@H](C)C(=O)/C=C(\O)[C@H](C)C[C@H](C)C/C=C/[C@@H](C)[C@@H](O)[C@@H](C)[C@@H](O)C[C@@H]1CC[C@@](C)([C@H]2CC[C@@](C)([C@@H](C)O)O2)O1` [ionomycin], on Ca^2+ uniporter [1] (test compounds 1 micromolar), the “fluorescence signal over the 3 minutes” value is given as “release Ca^2+ from cell stores”; the “uniporter activity profile” value is “prevent Ca^2+ uptake and retention by the mitochondria”.

Take `CN1CCN(CCCN2c3ccccc3Sc3ccc(C(F)(F)F)cc32)CC1` [trifluoroperazine]: the “uniporter activity profile” value at Ca^2+ uniporter [1] (test compounds 1 micromolar) is “do not possess uniporter inhibitory activity”.

Ru360: at Ca^2+ uniporter [4], the “mitochondrial uptake of the second Ca^2+ pulse” value is on record as “prevented the uptake of Ca^2+ by the Ca Uniporter”. For the same compound, the “uniporter activity profile” value at Ca^2+ uniporter [1] (Ru360 10 micromolar) is given as “no uptake of Ca^2+ by the uniporter”.

(Values after patent US6808873B2, “Screening assays using intramitochondrial calcium” (MitoKor, Inc., priority 2000, dated 2004).)
